From patent US8906909B2 (Curis, Inc., priority 2009, dated 2014)

Assays:
[1] = system: HDACs (HeLa cell nuclear extracts); experiment: HDAC enzymatic activity, Biomol Color de Lys system; assay type: biochemical
Method in brief: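 HeLa nuclear extract as HDAC source with Color de Lys substrate in 50 mM Tris/Cl pH 8.0, 137 mM NaCl, 2.7 mM KCl, 1 mM MgCl2. Serially diluted compounds reacted 1 h at 25 °C, then developer added; fluorescence (Ex 350–380/Em 440–460) fitted sigmoidally for IC50.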

Structure (SMILES) | IC50 [1] | melting point
Cc1nc2ccc(-c3nc(N4CCOCC4)c4sc(CN(C)c5ncc(C(=O)NO)cn5)cc4n3)cc2[nH]1 [Compound 199, N-hydroxy-2-(methyl((2-(2-methyl-3H-benzo[d]imidazol-5-yl)-4-morpholinothieno[3,2-d]pyrimidin-6-yl)methyl)amino)pyrimidine-5-carboxamide] | < 100 nM | 230 to 233 °C
O=C(NO)c1ccc(NCc2cc3nc(-c4cccc5[nH]ncc45)nc(N4CCOCC4)c3s2)cc1 [Compound 78, 4-((2-(1H-indazol-4-yl)-4-morpholinothieno[3,2-d]pyrimidin-6-yl)methylamino)-N-hydroxybenzamide] | < 100 nM | 180 to 183 °C
CS(=O)(=O)N1CCN(Cc2cc3nc(-c4cccc5nn(CCCCC(=O)NO)cc45)nc(N4CCOCC4)c3s2)CC1 [Compound 7, N-hydroxy-5-(4-(6-((4-(methylsulfonyl)piperazin-1-yl)methyl)-4-morpholinothieno[3,2-d]pyrimidin-2-yl)-2H-indazol-2-yl)pentanamide] | 100 to 1000 nM | 146 to 169 °C
Nc1ncc(-c2nc(N3CCOCC3)c3sc(NS(=O)(=O)c4ccc(/C=C/C(=O)NO)cc4)cc3n2)cn1 [Compound 217, (E)-3-(4-(N-(2-(2-aminopyrimidin-5-yl)-4-morpholinothieno[3,2-d]pyrimidin-6-yl)sulfamoyl)phenyl)-N-hydroxyacrylamide] | < 100 nM | > 300 °C
CCCCN(Cc1cc2nc(-c3cccc4[nH]ncc34)nc(N3CCOCC3)c2s1)c1ncc(C(=O)NO)cn1 [Compound 85, 2-(((2-(1H-indazol-4-yl)-4-morpholinothieno[3,2-d]pyrimidin-6-yl)methyl)(butyl)amino)-N-hydroxypyrimidine-5-carboxamide] | < 100 nM | 234 to 236 °C
O=C(CCCNCc1cc2nc(-c3cccc4[nH]ncc34)nc(N3CCOCC3)c2s1)NO [Compound 41, 4-((2-(1H-indazol-4-yl)-4-morpholinothieno[3,2-d]pyrimidin-6-yl)methylamino)-N-hydroxybutanamide] | < 100 nM | 149 to 152 °C
CN(Cc1cc2nc(-c3ccc(N4CCCC4)cc3)nc(N3CCOCC3)c2s1)c1ncc(C(=O)NO)cn1 [Compound 155, N-hydroxy-2-(methyl((4-morpholino-2-(4-(pyrrolidin-1-yl)phenyl)thieno[3,2-d]pyrimidin-6-yl)methyl)amino)pyrimidine-5-carboxamide] | < 100 nM | 187 to 192 °C
CNc1ncc(-c2nc(N3CCOCC3)c3sc(NCCCCC(=O)NO)cc3n2)cn1 [Compound 227, N-Hydroxy-5-(2-(2-(methylamino)pyrimidin-5-yl)-4-morpholinothieno[3,2-d]pyrimidin-6-ylamino)pentanamide] | < 100 nM | 206 to 210 °C
CN(Cc1cc2nc(-c3ccc4c(c3)CC(=O)N4)nc(N3CCOCC3)c2s1)c1ncc(C(=O)NO)cn1 [Compound 194, N-hydroxy-2-(methyl((4-morpholino-2-(2-oxoindolin-5-yl)thieno[3,2-d]pyrimidin-6-yl)methyl)amino)pyrimidine-5-carboxamide] | < 100 nM | 270 °C (dec.)
CN(Cc1cc2nc(-c3ccc(N)c(CO)c3)nc(N3CCOCC3)c2s1)c1ncc(C(=O)NO)cn1 [Compound 285, 2-(((2-(4-Amino-3-(hydroxymethyl)phenyl)-4-morpholinothieno[3,2-d]pyrimidin-6-yl)methyl)(methyl)amino)-N-hydroxypyrimidine-5-carboxamide] | < 100 nM | 195 to 200 °C
CN(Cc1cc2nc(-c3ccc(N)c(C#N)c3)nc(N3CCOCC3)c2s1)c1ncc(C(=O)NO)cn1 [Compound 280, 2-(((2-(4-Amino-3-cyanophenyl)-4-morpholinothieno[3,2-d]pyrimidin-6-yl)methyl)(methyl)amino)-N-hydroxypyrimidine-5-carboxamide] | < 100 nM | 237 to 240 °C
CN(Cc1cc2nc(-c3cccc4[nH]ncc34)nc(Nc3ccccn3)c2s1)c1ncc(C(=O)NO)cn1 [Compound 168, 2-(((2-(1H-indazol-4-yl)-4-(pyridin-2-ylamino)thieno[3,2-d]pyrimidin-6-yl)methyl)(methyl)amino)-N-hydroxypyrimidine-5-carboxamide] | < 100 nM | 200 to 203 °C
CN(CCCC(=O)NO)Cc1cc2nc(-c3cccc4[nH]ncc34)nc(N3CCOCC3)c2s1 [Compound 101, 4-(((2-(1H-indazol-4-yl)-4-morpholinothieno[3,2-d]pyrimidin-6-yl)methyl)(methyl)amino)-N-hydroxybutanamide] | > 10000 nM | 115 to 118 °C
CN(CCCCCC(=O)NO)Cc1cc2nc(-c3cccc4[nH]ncc34)nc(N3CCOCC3)c2s1 [Compound 103, 6-(((2-(1H-indazol-4-yl)-4-morpholinothieno[3,2-d]pyrimidin-6-yl)methyl)(methyl)amino)-N-hydroxyhexanamide] | < 100 nM | 115 to 118 °C

Next, values leading:

IC50 [1] | melting point | Structure (SMILES)
< 100 nM | 175 to 178 °C | COc1ccc(-c2nc(N3CCOCC3)c3sc(C(C)(C)N(C)c4ncc(C(=O)NO)cn4)cc3n2)cn1 [Compound 251, N-Hydroxy-2-((2-(2-(6-methoxypyridin-3-yl)-4-morpholinothieno[3,2-d]pyrimidin-6-yl)propan-2-yl)(methyl)amino)pyrimidine-5-carboxamide]
< 100 nM | 172 to 175 °C | CN(C)c1cccc(-c2nc(N3CCOCC3)c3sc(CN(C)c4ncc(C(=O)NO)cn4)cc3n2)c1 [Compound 108, 2-(((2-(3-(dimethylamino)phenyl)-4-morpholinothieno[3,2-d]pyrimidin-6-yl)methyl)(methyl)amino)-N-hydroxypyrimidine-5-carboxamide]
< 100 nM | 170 to 175 °C | CNCCOc1ccc(-c2nc(N3CCOCC3)c3sc(CN(C)c4ncc(C(=O)NO)cn4)cc3n2)cn1 [Compound 258, N-Hydroxy-2-(methyl((2-(6-(2-(methylamino)ethoxy)pyridin-3-yl)-4-morpholinothieno[3,2-d]pyrimidin-6-yl)methyl)amino)pyrimidine-5-carboxamide]
< 100 nM | 231 to 239 °C | CN(Cc1cc2nc(-c3ccc4[nH]cnc4c3)nc(N3CCOCC3)c2s1)c1ncc(C(=O)NO)cn1 [Compound 187, 2-(((2-(1H-benzo[d]imidazol-5-yl)-4-morpholinothieno[3,2-d]pyrimidin-6-yl)methyl)(methyl)amino)-N-hydroxypyrimidine-5-carboxamide]
< 100 nM | 197 to 201 °C | CC(=O)Nc1ccc(-c2nc(N3CCOCC3)c3sc(CN(C)c4ncc(C(=O)NO)cn4)cc3n2)cn1 [Compound 112, 2-(((2-(6-acetamidopyridin-3-yl)-4-morpholinothieno[3,2-d]pyrimidin-6-yl)methyl)(methyl)amino)-N-hydroxypyrimidine-5-carboxamide]
< 100 nM | 222 to 225 °C | CN(Cc1cc2nc(-c3ccc(N)c(N)c3)nc(N3CCOCC3)c2s1)c1ncc(C(=O)NO)cn1 [Compound 156, 2-(((2-(3,4-diaminophenyl)-4-morpholinothieno[3,2-d]pyrimidin-6-yl)methyl)(methyl)amino)-N-hydroxypyrimidine-5-carboxamide]
< 100 nM | 259 to 265 °C | COc1ccc(-c2nc(N3CCOCC3)c3sc(S(=O)(=O)Nc4ncc(C(=O)NO)cn4)cc3n2)cn1 [Compound 252, 2-[2-(6-Methoxy-pyridin-3-yl)-4-morpholin-4-yl-thieno[3,2-d]pyrimidine-6-sulfonylamino]-pyrimidine-5-carboxylic acid hydroxyamide]
< 100 nM | 200 to 205 °C | CNc1ccc(-c2nc(N3CCOCC3)c3sc(C(C)(C)Nc4ncc(C(=O)NO)cn4)cc3n2)cn1 [Compound 240, N-Hydroxy-2-(2-(2-(6-(methylamino)pyridin-3-yl)-4-morpholinothieno[3,2-d]pyrimidin-6-yl)propan-2-ylamino)pyrimidine-5-carboxamide]
< 100 nM | 218 to 220 °C | CNc1ccc(-c2nc(N3CCOCC3)c3sc(CN(C)c4ncc(C(=O)NO)cn4)cc3n2)cc1 [Compound 151, N-hydroxy-2-(methyl((2-(4-(methylamino)phenyl)-4-morpholinothieno[3,2-d]pyrimidin-6-yl)methyl)amino)pyrimidine-5-carboxamide]
< 100 nM | 140 to 143 °C | CN(C)CCOc1ccc(-c2nc(N3CCOCC3)c3sc(CN(C)c4ncc(C(=O)NO)cn4)cc3n2)cn1 [Compound 257, 2-(((2-(6-(2-(Dimethylamino)ethoxy)pyridin-3-yl)-4-morpholinothieno[3,2-d]pyrimidin-6-yl)methyl)(methyl)amino)-N-hydroxypyrimidine-5-carboxamide]
< 100 nM | 270 to 275 °C | CNc1ccc(-c2nc(N3CCOCC3)c3sc(C(C)N(C)c4ncc(C(=O)NO)cn4)cc3n2)cn1 (stereo not drawn) [Compound 237, N-Hydroxy-2-(methyl(1-(2-(6-(methylamino)pyridin-3-yl)-4-morpholinothieno[3,2-d]pyrimidin-6-yl)ethyl)amino)pyrimidine-5-carboxamide]
< 100 nM | 155 °C (dec.) | CC(C)c1ccc(-c2nc(N3CCOCC3)c3sc(CN(C)c4ncc(C(=O)NO)cn4)cc3n2)cc1 [Compound 148, N-hydroxy-2-(((2-(4-isopropylphenyl)-4-morpholinothieno[3,2-d]pyrimidin-6-yl)methyl)(methyl)amino)pyrimidine-5-carboxamide]
< 100 nM | 143 to 145 °C | CN(Cc1cc2nc(-c3ccc(OCCO)nc3)nc(N3CCOCC3)c2s1)c1ncc(C(=O)NO)cn1 [Compound 256, N-Hydroxy-2-(((2-(6-(2-hydroxyethoxy)pyridin-3-yl)-4-morpholinothieno[3,2-d]pyrimidin-6-yl)methyl)(methyl)amino)pyrimidine-5-carboxamide]
